Measurements taken from patent US7531557B2, “Diaryl ethers as opioid receptor antagonists” (Eli Lilly and Company, priority 2002, dated 2009).

Legend:
Diet Induced Obese Rat = test: Indirect calorimetry assay (food consumption, energy balance); assay type: in vivo; settings: for Energy Balance Diet Induced Obese Rat: test dose 3 mg/kg, energy balance = caloric intake minus utilization
Protocol: Indirect Calorimetry Assay
Twenty-four-hour energy expenditure (EE) and respiratory quotient (RQ) were measured by indirect calorimetry using an open circuit calorimetry system (Oxymax, Columbus Instruments Int. Corp., USA). RQ is the ratio of the volume of CO2 produced (VCO2) to the volume of O2 consumed (VO2). EE was calculated as the product of calorific value of oxygen (CV) and VO2 per kilogram of body weight, where CV=3.815+1.232 (RQ). Total calories expended were calculated to determine daily fuel utilization. To calculate the proportion of protein, fat and carbohydrate that is used during that 24-hour period, we used Flatt's proposal (see, Flatt J P 1991 Assessment of daily and cumulative carbohydrate and fat balances in mice. J Nutr Biochem 2:193-202.) and formulae as well as other derived constants (see Elia M, Livesey G 1992 Energy expenditure and fuel selection in biological systems: the theory and practice of calculations based on indirect calorimetry and tracer methods. World Rev Nutr Diet 70:68-131.). Food consumption over the 24-hour period was also measured. […] Results obtained for a sample of compounds of the invention with the indirect calorimetry assay are shown below in Table 4.

Rat = test: Acute feeding assay (Rat Obesity assay); assay type: in vivo
Excerpt: Acute Feeding Assay (Rat Obesity Assay)
The efficacy of compounds of the present invention has been further verified by the results of a Rat Obesity assay shown in Table 3.

[1] = former clinical trial candidate, development discontinued; cited from earlier work
[2] = tested on: dietary induced obese rats; settings: cited from earlier work
[3] = tested on: mu, delta and kappa receptors in rat striatum/nucleus accumbens; test: Ex-vivo receptor binding of 3H-diprenorphine in rat brain after oral dosing; settings: 7 mg/kg p.o., 6 hours after administration, striatum/nucleus accumbens homogenate, versus vehicle

Compound | Inhibition of Feeding Diet Induced Obese Rat Minimum Effective Dose (MED) (Diet Induced Obese Rat; p.o., lowest dose with food consumption over 24 hours significantly different from vehicle) [mg/kg] | Energy Balance Diet Induced Obese Rat (Diet Induced Obese Rat; p.o.) [kcal/kg/day] | Doses in ug/kg to achieve effective inhibition (Rat) [µg/kg] | human oral bioavailability [1] | minimal effective dose (Diet Induced Obese Rat; Rattus norvegicus, po, lowest dose with food consumption over 24 hours significantly different from vehicle, read-out: Inhibition of Feeding Diet Induced Obese Rat Minimum Effective Dose (MED)) [mg/kg] | energy balance and total body mass ([2]; chronic treatment, dietary induced obese rats fed a high fat diet) | food intake ([2]; oral administration, acute and chronic treatment in rats) | Ex Vivo Binding [3H]-Diprenorphine % Inhibition of at 6 hours 7 mg/kg of test compound [3] [%]
4-(4-Pentylaminomethyl-phenoxy)-benzamide [Example 290] | 3 | -65 | 3 | – | – | – | – | –
C[C@H]1CN(CC[C@H](O)C2CCCCC2)CC[C@@]1(C)c1cccc(O)c1 [LY255582, reference compound] | – | -36 | – | lack of satisfactory human oral bioavailability | 1 | sustained negative energy balance leading to a decrease in total body mass | robust reductions in food intake | >40
